One test addresses T1, A1 receptors (Rattus norvegicus, UniProt P25099).
T1 sequence (P25099 1-326): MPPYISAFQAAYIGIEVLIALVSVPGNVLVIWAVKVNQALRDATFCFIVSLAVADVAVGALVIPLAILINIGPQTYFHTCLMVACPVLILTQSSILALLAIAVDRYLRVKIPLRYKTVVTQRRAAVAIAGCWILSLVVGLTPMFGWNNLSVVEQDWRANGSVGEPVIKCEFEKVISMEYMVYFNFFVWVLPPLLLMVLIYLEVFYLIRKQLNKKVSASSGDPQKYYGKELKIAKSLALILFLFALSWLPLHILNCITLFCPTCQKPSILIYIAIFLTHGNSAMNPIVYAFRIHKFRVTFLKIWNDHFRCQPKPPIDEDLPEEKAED
Briefly: biochemical. It counts as binding.

In another test the target is T2, human A3 receptors (Homo sapiens, UniProt P0DMS8).
T2 construct: expressed in transfected cells; host or cells: HEK-293 cells (membranes)
T2 sequence (P0DMS8 1-318): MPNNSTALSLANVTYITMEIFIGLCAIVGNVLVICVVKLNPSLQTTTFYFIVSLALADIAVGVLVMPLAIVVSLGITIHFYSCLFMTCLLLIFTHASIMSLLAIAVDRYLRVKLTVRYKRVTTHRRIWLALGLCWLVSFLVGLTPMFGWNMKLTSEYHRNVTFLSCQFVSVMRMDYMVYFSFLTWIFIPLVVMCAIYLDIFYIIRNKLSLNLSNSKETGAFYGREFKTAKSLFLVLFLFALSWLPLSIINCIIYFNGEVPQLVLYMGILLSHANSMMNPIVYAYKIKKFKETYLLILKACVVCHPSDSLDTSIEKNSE
Briefly: radioligand binding, displacement of specific [125I]AB-MECA binding at human A3 receptors expressed in HEK-293 cells. The settings on record: for inhibition at 100 µM: 10^-4 M.

The target of another test is T3, A2a receptors (Rattus norvegicus, UniProt P30543).
T3 construct: Displacement of specific [^3 H]; from tissue; host or cells: rat striatal membranes
Description: radioligand binding, displacement of specific [3H]CGS 21680 binding in rat striatal membranes. Conditions: for inhibition at 100 µM: 10^-4 M.

The mark [1] stands for this setting: Table 9, [3H]PIA, rat brain membranes, read-out: Ki rA1.
Where [2] appears, read: Table 9, [125I]AB-MECA, HEK membranes, read-out: Ki hA3.
Setting [3] is: Table 9, [3H]CGS 21680, rat striatal membranes, read-out: Ki rA2A.
The mark [4] stands for this setting: Table 12, read-out: % inhibition rA2A.
Setting [5] is: Table 12, [125I]AB-MECA, HEK membranes, read-out: Ki hA3.
[6] abbreviates: Table 4, read-out: displacement of specific binding rA2a.
Setting [7] is: Table 3, [3H]PIA, rat brain membranes, read-out: Ki rA1.
Setting [8] is: Table 3, [125I]AB-MECA, HEK-293 membranes, read-out: Ki hA3.
[9] abbreviates: Table 3, read-out: displacement of specific binding rA2a.
Where [10] appears, read: Table 6, [125I]AB-MECA, HEK-293 membranes, read-out: K2 (hA3).
Setting [11] is: Table 7, [3H]CGS 21680, rat striatal membranes, read-out: Ki (rA2A).
Setting [12] is: Table 11, [125I]AB-MECA, HEK membranes, read-out: Ki hA3.
Where [13] appears, read: Table 16, [125I]AB-MECA, HEK membranes, read-out: Ki hA3.

Read-outs that look alike come from different tables or passages of the source.

T3 sequence (P30543 whole entry): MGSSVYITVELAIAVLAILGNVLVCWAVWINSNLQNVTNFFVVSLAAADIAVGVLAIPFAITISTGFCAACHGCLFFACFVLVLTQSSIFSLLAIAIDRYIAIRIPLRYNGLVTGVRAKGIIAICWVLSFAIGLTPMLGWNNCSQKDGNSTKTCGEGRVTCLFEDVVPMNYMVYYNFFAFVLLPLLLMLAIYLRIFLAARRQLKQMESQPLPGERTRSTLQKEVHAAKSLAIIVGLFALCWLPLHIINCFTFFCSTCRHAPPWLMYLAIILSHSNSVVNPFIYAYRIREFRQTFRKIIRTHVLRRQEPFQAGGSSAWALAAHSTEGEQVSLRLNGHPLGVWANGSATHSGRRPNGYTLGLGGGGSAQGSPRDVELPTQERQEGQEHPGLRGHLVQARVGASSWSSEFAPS
Description for A1 receptors: ^a Displacement of specific [^3 H] PIA binding in rat brain
percentage of specific binding displaced at 100 μM.
Description for A2a receptors: ^b Displacement of specific [^3 H]
or as a percentage of specific binding displaced at 100 μM.
Description for human A3 receptors: A3 receptors expressed in HEK293 cells, in membranes, expressed as
binding displaced at 100 μM.

As to `CCOC(=O)C1=C(C)NC(C)=C(C(=O)OC)C1c1ccc2c(c1)OCO2` (racemic) [Compound 73, 3-methyl-5-ethyl-2,6-dimethyl-4-[3,4-(methylenedioxy)phenyl]-1,4(R,S)-dihydropyridine-3,5-dicarboxylate], the Ki on A1 receptors (setting [1]) amounted to 3.66 µM; at human A3 receptors (setting [2]) it was 4.58 µM; on A2a receptors (setting [3]) it was 5.27 µM.
For `CCOC(=O)C1=C(C)NC(c2ccccc2)=C(C(=O)O)C1C#Cc1ccccc1` (racemic) [Compound 131, 3-Ethoxycarbonyl-2-methyl-4-phenylethynyl-6-phenyl-1,4(±)-dihydropyridine-5-carboxylic acid], on human A3 receptors (Table 12, 10^-5 M, read-out: displacement of specific binding hA3), the inhibition at 10 µM was < 10%. For the same compound, the inhibition at 100 µM on A2a receptors (setting [4]) worked out at 16 ± 6%.
Turning to `CCOCN1C(C)=C(C(=O)OCC)C(C#Cc2ccccc2)C(C(=O)O)=C1c1ccccc1` (racemic) [Compound 139, 1-Ethoxymethyl-3-ethoxycarbonyl-2-methyl-4-phenylethynyl-6-phenyl-1,4-(±)-dihydropyridine-5-carboxylic acid], the rA1/hA3 on human A3 receptors was > 1. For the same compound, the Ki at human A3 receptors (setting [5]) was > 100 µM. Also, the inhibition at 100 µM on A2a receptors (setting [4]) is 36 ± 7%.
Regarding `O=C1c2ccccc2O[C@H](c2ccccc2O)[C@H]1O` (relative stereo) [Compound 14, reference compound], the inhibition at 100 µM at human A3 receptors (Table 4, read-out: % of specific binding displaced hA3) was 27 ± 3%; at A2a receptors (setting [6]), < 10%. Further, the rA1/hA3 on human A3 receptors (Table 4, ratio of Ki) was < 1.
In the case of `COc1ccc2c(c1)C(=O)[C@H](O)[C@@H](C#Cc1ccccc1)O2` (relative stereo) [Compound 16], the Ki at A1 receptors (Table 4, [3H]PIA, rat brain membranes, read-out: Ki rA1) is 50.3 ± 17 µM; at human A3 receptors (Table 4, [125I]AB-MECA, HEK-293 membranes, read-out: Ki hA3) it was 8.17 µM. Moreover, at human A3 receptors, the rA1/hA3 was 6.2. Also, the inhibition at 100 µM on A2a receptors (setting [6]) was < 10%.
In the case of `CCOC(=O)c1c(C)nc(-c2ccccc2)c(C(=O)OCc2ccccc2)c1C#Cc1ccccc1` [B], the Ki on A1 receptors (Table 11, [3H]PIA, rat brain membranes, read-out: Ki rA1) was 7.01 ± 1.98 µM. The rA1/hA3 at human A3 receptors was found to be 2.6. Further, the inhibition at 100 µM on A2a receptors (Table 11, read-out: % inhibition rA2A) was 43 ± 2%.
For the compound `CCCOc1cc(OCCC)c2c(=O)c(OCCC)c(-c3ccccc3)oc2c1` [Compound 4, 3,5,7-Tripropyloxyflavone], the Ki at A1 receptors (setting [7]) was 1.1 ± 0.2 µM; on human A3 receptors (setting [8]) it was 0.317 µM.
On to `CCOc1ccc(-c2oc3cc(OCC)cc(O)c3c(=O)c2OCC)c(OCC)c1` [Compound 7, 2',4',3,7-Tetraethoxy-5-hydroxymorin], for which the inhibition at 100 µM was < 10% at A1 receptors (Table 3, 10^-4 M, read-out: displacement of specific binding rA1) and < 10% at A2a receptors (setting [9]). In addition, the Ki at human A3 receptors (setting [8]) stood at 4.83 ± 1.4 µM. Also, at human A3 receptors (Table 3, ratio of Ki), the rA1/hA3 is recorded as > 40.
As for `CCOc1ccc(-c2oc3cc(OCC)cc(OCC)c3c(=O)c2OCC)c(OCC)c1` [Compound 8, 2',3,4',5,7-Pentaethoxyflavone], the Ki is 7.27 ± 1.88 µM on human A3 receptors (setting [8]) and 26.8 µM on A2a receptors (Table 3, [3H]CGS 21680, rat striatal membranes, read-out: Ki rA2a).
Turning to `COc1cc(OC)c(-c2oc3ccccc3c(=O)c2O)c(OC)c1` [Compound 9, reference compound], the Ki came out at 7.32 ± 1.36 µM on A1 receptors (setting [7]) and 50.1 ± 7.8 µM on human A3 receptors (setting [8]). For the same compound, the rA1/hA3 on human A3 receptors (Table 3, ratio of Ki) stood at 0.15. For the same compound, the inhibition at 100 µM on A2a receptors (setting [9]) is < 10%.
In the case of `O=c1cc(-c2ccccc2)oc2cccc(O)c12` [Compound 25, reference compound], at human A3 receptors (Table 6, read-out: % inhibition hA3), the inhibition at 100 µM worked out at 47 ± 12%. The Ki on A2a receptors (Table 6, [3H]CGS 21680, rat striatal membranes, read-out: K2 (rA2a)) is 6.2 ± 1.24 µM.
Take `COc1ccc(-c2cc(=O)c3c(OC)c(OC)c(OC)cc3o2)cc1` [Compound 31, reference compound]: the Ki is 1.29 ± 0.08 µM on A1 receptors (brain membranes, read-out: K2 (rA1)) and 4.48 ± 0.14 µM on human A3 receptors (setting [10]).
Turning to `COc1ccc(-c2oc3cc(OC)cc(OC)c3c(=O)c2OC)cc1` [Compound 35, 3,4',5,7-tetramethoxyflavone], the Ki was 1.07 µM at A1 receptors (Table 6, [3H]PIA, rat brain membranes, read-out: K2 (rA1)) and 3.37 ± 1.83 µM at human A3 receptors (setting [10]).
Consider `COc1cc(OC)c2c(=O)c(OC)c(-c3cc(OC)c(OC)c(OC)c3)oc2c1` [Compound 39, hexamethylmyricetin], for which the inhibition at 1 µM on A1 receptors (Table 6, 10^-6 M, read-out: displacement of specific binding rA1) was < 10%. Also, the Ki on human A3 receptors (setting [10]) is 16.2 ± 2.2 µM.
On to `COc1cc(O)c2c(c1)O[C@H](c1ccc(O)cc1)CC2=O` [Compound 42, sakuranetin, reference compound], for which the Ki on human A3 receptors (Table 7, [125I]AB-MECA, HEK-293 membranes, read-out: Ki (hA3)) was 3.4 ± 0.18 µM.
As for `COc1cc2c3c(oc(=O)c2cc1OC)CCCC3=O` [Compound 45], on human A3 receptors (Table 7, read-out: displacement of specific binding hA3), the inhibition at 100 µM was < 10%. Also, the Ki at A2a receptors (setting [11]) worked out at 29.9 ± 10.1 µM.
In the case of `O=C1c2ccccc2-c2cc3c(cc21)OCO3` [Compound 49, 2,3-methylenedioxy-fluorene-9-one], on human A3 receptors (Table 7, read-out: % of specific binding displaced hA3), the inhibition at 100 µM stood at 52 ± 6%. In addition, the Ki at A2a receptors (setting [11]) was 84 ± 6.9 µM.
For the compound `COCCOC(=O)C1=C(C)NC(C)=C(C(=O)OC(C)C)C1c1cccc([N+](=O)[O-])c1` (centres unmarked) [Compound 64, reference compound], the Ki at A1 receptors (setting [1]) came out at 20.1 µM; at human A3 receptors (setting [2]), 8.47 µM. Also, the “greater affinity to A1 than A2a adenosine receptors” value at A1 receptors (selectivity in words) is reported as “greater affinity to A1 adenosine receptors than A2a receptors”. For the same compound, the “greater affinity for A3 than A1 or A2a adenosine receptors” value on human A3 receptors (selectivity in words) is on record as “greater affinity for A3 adenosine receptors than A1 or A2a adenosine receptors”.
Take `COC(=O)C1=C(C)NC(C)=C(C(=O)OCCCN2CCC(c3ccccc3)(c3ccccc3)CC2)C1c1cccc([N+](=O)[O-])c1` (centres unmarked) [Compound 65, reference compound]: the “greater affinity to A1 than A2a adenosine receptors” value on A1 receptors is reported as “greater affinity to A1 adenosine receptors than A2a receptors”. Besides, the “greater affinity for A3 than A1 or A2a adenosine receptors” value on human A3 receptors was “greater affinity for A3 adenosine receptors than A1 or A2a adenosine receptors”.
As for `CCOC(=O)C1=C(C)NC(c2ccccc2)=C(C(=O)OCC)C1/C=C/c1ccccc1` (centres unmarked) [Compound 79], the “greater affinity for A3 than A1 or A2a adenosine receptors” value on human A3 receptors (selectivity in words) was “greater affinity for A3 adenosine receptors than A1 or A2a adenosine receptors”. In addition, the Ki on A2a receptors (setting [3]) is 4.77 ± 0.29 µM.
As to `COc1ccc(-c2ccncc2)cc1` [Compound 83], the inhibition at 100 µM at human A3 receptors (Table 10, read-out: displacement of specific binding hA3) was < 10%. Further, the Ki at A2a receptors (Table 10, [3H]CGS 21680, rat striatal membranes, read-out: Ki rA2a) amounted to 71 ± 29 µM.
For the compound `CCOC(=O)C1=C(C)NC(c2ccccc2)=C(C(=O)OCc2ccccc2)C1C#Cc1ccc([N+](=O)[O-])cc1` (centres unmarked) [Compound 102], the Ki on human A3 receptors (setting [12]) was < 0.1 µM.
The same measure, in the same setting: with `CCOC(=O)C1=C(C)NC(c2ccccc2)=C(C(=O)OCc2ccccc2)C1C#Cc1ccc(N)cc1` (centres unmarked) [Compound 103] the figure was < 0.1 µM.
Turning to `CCOC(=O)C1=C(C)NC(c2ccccc2)=C(C(=O)OCc2ccccc2)C1C#Cc1ccc(N)c(I)c1` (centres unmarked) [Compound 104], the Ki on human A3 receptors (setting [12]) was < 0.1 µM.
Regarding `CCOC(=O)C1=C(C)NC(c2ccccc2)=C(C(=O)OCc2ccc(C(=O)NCCN)cc2)C1C#Cc1ccccc1` (centres unmarked) [Compound 123], on human A3 receptors (setting [5]), the Ki came out at 0.01 µM.
For the compound `Nc1nc2ccc(Cl)cc2c2nc(-c3ccco3)nn12` [Compound 144, reference compound], the Ki at human A3 receptors (read-out: Ki hA3) came out at 0.0138 ± 0.0024 µM.
Consider `Nc1nc2ccc(Cl)cc2c2nc(-c3ccc(Br)o3)nn12` [Compound 157], for which, at human A3 receptors (Table 15, [125I]AB-MECA, HEK membranes, read-out: Ki hA3), the Ki was found to be 0.054 ± 0.0131 µM.
For `O=C(CCc1ccccc1)Nc1nc2ccc(Cl)cc2c2nc(-c3ccco3)nn12` [Compound 160], the Ki turned out to be 0.0297 ± 0.0077 µM at human A3 receptors (setting [13]) and 0.0283 ± 0.0103 µM on A2a receptors (read-out: Ki rA2A).
Consider `O=C(Cc1ccc([N+](=O)[O-])cc1)Nc1nc2ccc(Cl)cc2c2nc(-c3ccco3)nn12` [Compound 162], for which the Ki was 0.028 µM on A1 receptors (Table 16, [3H]R-PIA, rat brain membranes, read-out: Ki rA1) and 0.0087 ± 0.00097 µM on human A3 receptors (setting [13]).
In the case of `Nc1ccc(CC(=O)Nc2nc3ccc(Cl)cc3c3nc(-c4ccco4)nn23)cc1` [Compound 163], on human A3 receptors (setting [13]), the Ki came out at 0.004 µM.
In the case of `Nc1ccc(CC(=O)Nc2nc3ccc(Cl)cc3c3nc(-c4ccco4)nn23)cc1I` [Compound 164], the Ki at human A3 receptors (setting [13]) came out at 0.001 µM.

Values taken from patent publication US6066642A, “Dihydropyridine-, pyridine-, benzopyran-4-one- and triazoloquinazoline derivative, their preparation and their use as adenosine receptor antagonists” (priority 1998, dated 2000).
